Laboratory results reported in patent publication US9581729B2, “Compound, photosensitive resin composition comprising the same and color filter” (Samsung SDI Co., Ltd., priority 2015, dated 2017).

Test: Solubility in dilution solvent (PGMEA)
Type: physicochemical
Details: 25° C., 100 rpm, 1 hour
Procedure: A dilution solvent (PGMEA) is respectively added to 0.5 g of each compound according to Synthesis Examples 6 to 13 and Comparative Synthesis Examples 1 and 2, and each solution is agitated with a mixrotor (Mixrotor VMR-5, Iuchi Seieido Co., Ltd.) at 25° C. and 100 rpm for 1 hour, and solubility result of each compound is provided in Table 1. Solubility Evaluation Reference Dissolution of a compound (a solute) in an amount of greater than or equal to 10 wt % based on the total weight of the dilution solvent: ∘ Dissolution of a compound (a solute) in an amount ranging from greater than or equal 5 wt % and less than 10 wt % based on the total weight of the dilution solvent: Δ Dissolution of a compound (a solute) in an amount ranging from less than 5 wt % based on the total weight of the dilution solvent: X

Clc1c(Cl)c2c(c(Cl)c1Oc1ccccc1)/C1=N/c3c4c(Cl)c(Cl)c(Oc5ccccc5)c(Cl)c4c4[n]3[Zn][n]3/c(c5c(Cl)c(Cl)c(Oc6ccccc6)c(Cl)c5/c3=N/C2=N1)=N\C1=NC(=N\4)/c2c(Cl)c(Oc3ccccc3)c(Cl)c(Cl)c21 [Comparative Synthesis Example 1]
Solubility: Δ (Dissolution of a compound (a solute) in an amount ranging from greater than or equal 5 wt % and less than 10 wt % based on the total weight of the dilution solvent)

CCCCCOc1c(Cl)c(Cl)c2c(c1Cl)C1=NC/2=N\c2c3c(Cl)c(Cl)c(OCCCCC)c(Cl)c3c3[n]2[Zn][n]2/c(c4c(Cl)c(Cl)c(OCCCCC)c(Cl)c4/c2=N/1)=N\C1=NC(=N\3)/c2c(Cl)c(Cl)c(OCCCCC)c(Cl)c21 [Comparative Synthesis Example 2]
Solubility: Δ (Dissolution of a compound (a solute) in an amount ranging from greater than or equal 5 wt % and less than 10 wt % based on the total weight of the dilution solvent)
